# According to US20030181727A1, “Cyanine dyes” (Kabushiki Kaisha Hayashibara Seibutsu Kagaku Kenky, priority 1999, published 2003):
# How the values were obtained:
# [1] = Light-resistance test: residual percentage of dye in thin layer on glass after 25 min exposure to 500 W xenon lamp; assay type: physicochemical; conditions: 7 cm, from transmittance at absorption maximum; for Residual percentage of monomethine cyanine dye, With no light-resistant improver: control thin layer without improver; for Residual percentage of monomethine cyanine dye, With light-resistant improver: thin layer with formazan nickel complex of Chemical Formula 49 (15 mg dye + 2 mg improver in 3 ml TFP)
# Protocol: Fifteen milligrams of either of the monomethine cyanine dyes in Table 2 was added to three milliliters of TFP, and as a light-resistant improver two milligrams of the formazan nickel complex represented by Chemical Formula 49 disclosed in Japanese Patent Application No. 163,036/99, titled “Formazan metal complexes” applied for by the same applicant as the present invention, and the contents were dissolved in the solvent with a 5-minute ultrasonic energization at ambient temperature. Thereafter, in a usual manner, a prescribed volume of the resulting solution was dropped on either surface of a polished glass substrate, 5 cm×5 cm, while the glass substrate was rotated at a rotation rate of 1,000 rpm for one minute to uniformly coat the solution thereupon, and sequentially blown with hot air and cold air to dry the coated solution. [drawing 10]
# The resulting glass substrates coated with the monomethine cyanine dyes were measured for transmittance (T0) at the wavelengths of their absorption maxima, and then fixed to a position 7 cm apart from a 500 W xenon lamp and exposed with the light for 25 min while cold air was blowing to the substrates. Immediately after that, the resulting substrates were remeasured for transmittance (T) at the wavelengths of the absorption maxima of the monomethine cyanine dyes, and the transmittances of T and T0 for each monomethine cyanine dye were substituted for the Equation 1 to calculate the residual percentage (%) of each monomethine cyanine dye. In parallel, control systems with no light-resistant improver for each monomethine cyanine dye were provided and treated similarly as above. [formula]
# As shown in the results in Table 2, in the systems with no light-resistant improver, up to 74% of the monomethine cyanine dye had changed with only a 25-min exposure of light to become incapable of exerting its inherent optical properties. However, in the systems with the formazan metal complex represented by Chemical Formula 49, all of the monomethine cyanine dyes still remained intact up to a level of over 93% without changing even after the exposure of light.
# [2] = Visible absorption spectra of monomethine cyanine dyes in methanol solution and as thin layer on glass substrates; assay type: physicochemical; conditions: for Wavelength of absorption maximum, Solution: dissolved in methanol; for Wavelength of absorption maximum, Thin layer: thin layer formed on glass substrate
# Protocol: The monomethine cyanine dyes in Table 1 were measured for their visible absorption spectra when dissolved in methanol and formed on glass substrates, respectively. The results are tabulated in Table 1, and the visible absorption spectrum of the monomethine cyanine dye represented by Chemical Formula 17 when in a liquid form and in a thin-layer form are shown in FIG. 1.
# As evident from the results in Table 1 and FIG. 1, the monomethine cyanine dyes tested had absorption maxima in relatively short wavelength visible regions, particularly, at wavelengths of 450 nm or less both in the forms of solution and thin layer. Most of these monomethine cyanine dyes had absorption maxima at wavelengths of 350-400 nm when in solution and thin layer forms, and the ends of their absorption maxima in their longer wavelength regions extended up to about 450 nm when in a thin layer form. The fact evidences that the light absorbents, comprising the monomethine cyanine dyes of the present invention, have sensitivity to a relatively short-wavelength visible light, and most of the light absorbents substantially absorb laser beams with wavelengths of 450 nm or less in their longer wavelength regions with their absorption maxima.
"Residual percentage of monomethine cyanine dye, With no light-resistant improver [1] [%]","Residual percentage of monomethine cyanine dye, With light-resistant improver [1] [%]","Wavelength of absorption maximum, Solution [2] [nm]","Wavelength of absorption maximum, Thin layer [2] [nm]",SMILES
26.0,93.2,396,440,CN1C(=CC2=[N+](C)c3ccccc3C2(C)C)Oc2ccccc21.[I-] [Chemical Formula 36]
80.6,100.0,379,375,CC[n+]1c(C)csc1C=C1OC=C(C)N1C.[I-] [Chemical Formula 17]
98.7,100.0,380,371,CC[n+]1c(C=C2Oc3ccc(-c4ccccc4)cc3N2C)oc2ccccc21.[I-] [Chemical Formula 6]
